Legend:
[1] = system: p53; assay: p53 acetylation Western blot in U2OS cells; type: cell-based, human; conditions: 6 hours, TSA 10 mM
Experimental: U2OS cells were treated with piperlongumine (SP), the HDAC inhibitor TSA (trichostatin A ([…])) or the control DMSO for 6 hours. Cell extracts were fractionated in SDS-PAGE gel and analyzed by western blot.

[2] = system: EJ bladder carcinoma and U2OS osteosarcoma cell lines; assay: DNA damage in EJ bladder carcinoma and U2OS osteosarcoma cell lines; type: cell-based, human
Source text: (§1) The conditions and time of exposure are indicated in the legend of the figure.

[3] = system: EJ bladder carcinoma cells; assay: Persistent effects after removal of the compound in EJ cells; type: cell-based, human; conditions: 3 hrs treatment, washed, another 6 hrs in medium without compound
Experimental: EJ bladder carcinoma cells were treated with SP2007 (P10: 10 μM and P20: 20 μM), taxol (T10: 10 nM and T20: 20 nM) or DMSO vehicle control for either 20 hrs or 3 hrs. For the 20 hrs experiment, the percentages of remaining living cells ware measured on the end of the 20 hrs treatment time point. […] For the 3 hrs experiment, cells were washed 3 times with PBS after treatment with the and incubated for another 6 hrs in growing medium without SP2007, taxol or DMSO.

[4] = system: MMTV-PyVT mammary tumor; assay: MMTV-PyVT spontaneous mammary tumor mouse model; type: in vivo
Source text: MMTV-PvVT (FVB/N-Tg) transgenic mice develop multifocal mammary tumor (from hyperplasia to metastatic) with a high incidence of metastasis (Mice were obtained from the NCI repository). This mouse model has been widely used for the correlation studies of human cancer (Guy et al., Moll. Cell. Biol. 12: 954-961, 1992). In addition, this onco-mouse model has been used to evaluate the effectiveness of potential drug therapies. Generally, due to aggressiveness of tumor growth and spread in this mouse-model, only a combination of chemo-drugs is effective in tumor growth inhibition. MMTV-PyVT mice were maintained until mammary tumor size reached to 6 mm, and then piperlongumine (2.4 mg/kg) or vehicle (DMSO) was given daily by i.p. for 13 days. Tumor size was measured every 4 days (See FIGS. 31 and 32).
We compared the anti-tumor activity of piperlongumine (SP2007) with taxol, a well known chemo drug, in the MMTV-PyVT tumor mouse model as described above (8 mice per group). When tumor sizes grew to ˜5-6 mm in diameter, SP2007 (2.4 mg/kg/day) or Taxol (Paclitaxel, 10 mg/kg/day) was administered intraperitoneally (I.P.) daily for two weeks. After two weeks treatment, mice were sacrificed, and mammary tumors excised and the tumor sizes measured. […] The size of the grossly dissected tumors was measured using the formula: mean diameter=(A+B)/2.

[5] = system: immortalized human breast epithelial cells; assay: DNA damage markers in immortalized human breast epithelial cells; type: cell-based; conditions: taxol 10 nM
Source text: as §1

Compound: CC(/C=C/C(=O)NO)=C\[C@@H](C)C(=O)c1ccc(N(C)C)cc1 [TSA, reference compound]
- total amount of p53 [1]: did not increase

Compound: COc1cccc2c1C(=O)c1c(O)c3c(c(O)c1C2=O)C[C@@](O)(C(=O)CO)C[C@@H]3O[C@H]1C[C@H](N)[C@H](O)[C@H](C)O1 [adrimycin, reference compound]
- DNA damage (phosphorylated gamma-H2AX levels) [2]: results in the induction of DNA damage

Compound: CC(=O)O[C@H]1C(=O)[C@@]2(C)[C@H]([C@H](OC(=O)c3ccccc3)[C@]3(O)C[C@H](OC(=O)[C@H](O)[C@@H](NC(=O)c4ccccc4)c4ccccc4)C(C)=C1C3(C)C)[C@]1(OC(C)=O)CO[C@@H]1C[C@@H]2O [Taxol, reference compound]
- killing of cancer cells after removal of the compound [3]: significantly weakened
- secondary tumors ([4]; SP2007 2.4 mg/kg/day or Taxol 10 mg/kg/day i.p. for two weeks): moderate and secondary tumors appeared
- deaths during treatment ([4]; Taxol 10 mg/kg/day i.p. daily for two weeks): two of the Taxol-treated mice died at day 10
- phosphorylated gamma-H2AX and p53 [5]: results in the induction
